Laboratory results as given in paper PMC3944389, “Differential Neuroprotective Effects of 5′-Deoxy-5′-Methylthioadenosine” (PLoS ONE, 2014).

Key:
Type in all cases: in vivo, rat
[1] = tested on: Wistar rats, global brain ischemia; test: Transient forebrain (global) ischemia (4VO), Fluoro-Jade C staining of CA1; settings: 30 mg/kg i.p. from 30 min after onset of ischemia, 7 days reperfusion; untreated 180±10
Protocol: (§1) Male Wistar rats (270-300 g; Harlan) were subjected to transient focal ischemia for 90 min by producing right middle cerebral artery occlusion (MCAO) as described previously, followed by reperfusion for 3 days and MTA treatment (30 mg/kg, intraperitoneally –i.p.- twice daily) starting 30 min after the onset of ischemia (n = 5 in each experimental group). Cerebral blood flow was monitored transcranially with a laser Doppler flowmeter (Perimed) and the infarct volume was assessed by 2,3,5-triphenyltetrazolium chloride (TTC) staining. Transient forebrain ischemia was induced as described elsewhere, by occluding the vertebral and common carotid arteries (4VO) for 10 min, followed by reperfusion for 7 days and MTA treatment (as above) starting 30 min after the onset of ischemia (n = 5 in vehicle group; n = 6 in the […]). The effectiveness of the treatment was assessed by using fluoro-Jade C staining to measure the levels of degenerated neurons in the CA1 region of the hippocampal formation.
Fluoro-Jade C (Chemicon, Millipore) was used to visualize dying neurons in 10 µm frozen coronal sections pretreated for 15 min with 0.06% KMnO4. […] Cells were counted in the right and left hemispheres of each stained section, examining four sections from each experiment.

[2] = tested on: Wistar rats, transient MCAO model of focal brain ischemia; test: Transient focal ischemia (MCAO), infarct volume by TTC staining; settings: 30 mg/kg i.p. twice daily from 30 min after onset of ischemia, 3 days reperfusion; compared with vehicle
Protocol: as §1

[3] = tested on: Sprague-Dawley rats, pilocarpine-induced status epilepticus; test: Pilocarpine-induced status epilepticus (SE) model
Protocol: Young adult (175–200 g) male Sprague-Dawley rats from Charles River (Wilmington, MA, US) were divided into four MTA treatment groups, with 9–11 rats per group. In group A, rats were subjected to pilocarpine-induced status epilepticus (SE) as described previously. Following 90 min of continuous seizure activity, SE was stopped by administering a single dose of diazepam (10 mg/kg). The rats were then injected daily for 3 days with either the vehicle alone (2% DMSO in H2O), injecting a volume of body weight x 3.3 (a similar volume as for the MTA treated groups), or MTA (30 mg/kg). Rats were euthanized on day 4 after SE under anesthesia by transcardiac perfusion with 4% paraformaldehyde (PFA) in phosphate-buffered saline. The brains were removed, postfixed in 4% PFA, cryoprotected in 30% sucrose, frozen, and sectioned for histology. In group B, the rats received the same treatment as those in group A (vehicle or MTA 30 mg/kg) except that the rats were perfused on day 30 after SE and a 0,37% sulphide fixative was used for subsequent Timm staining. In group C, the rats were only treated with MTA (30 mg/kg) or the vehicle for 2 days and on the third day, the rats were again subjected to pilocarpine-induced SE. The animals were then treated once daily with MTA (30 mg/kg) or vehicle for a further 3 days, and they were anesthetized and euthanized 4 days after SE. […]
Mouse and rat coronal sections were mounted on glass slides in a 0.2% solution of gelatin in 0.05 M Trizma base [pH 7.6] […] To evaluate sprouting of the zinc-containing mossy fibers in the dentate gyrus inner molecular layer, Timm-stained sections were analyzed by an examiner blinded to experimental condition. […] Twelve samples of pixel density/section were measured in the inner molecular layer using NIH ImageJ, 5 from the lower blade, 5 from the upper blade and 2 from the apex. The average background level (mean of 12 samples/section) was subtracted and a mean pixel density calculated for each animal (n = 4–5/group). […]

Substance: 5′-deoxy-5′-methylthioadenosine [MTA]
- Fluoro Jade C stained cells in the hippocampal CA1 region [1]: 110±20 cells/mm
- volume of the infarct area [2]: did not show any reduction
- mossy fiber sprouting (Timm staining) ([3]; MTA 30 mg/kg pre-SE or post-SE, 30 days after SE): No difference
- neurodegeneration and neuronal loss in hippocampal areas (NeuN immunoreactivity) ([3]; MTA 30 mg/kg/day before or after SE, early (3-5 days) and late (30 days) time points): reduced the neurodegeneration and neuronal loss
- neuronal loss in the CA3 and CA1 hippocampal areas (stereological counting of NeuN-immunoreactive cells) ([3]; MTA 30 mg/kg/day prior to SE, 30 days after SE): significant reductions
